Calls of active or inactive are those of the source. The rule behind the calls is not given here.
Legend:
[1] = test system: Mus musculus; assay: Inhibition of cardiomyocyte hypertrophy in ISO-induced heart failure C57BL/6J mouse assessed as decrease in Bax level in heart tissue at 5 to 20 mg/kg/day, po for 14 days by Western blot analysis; assay type: functional, organism-based; conditions: dose 5-20 mg/kg/day, time 14.0 day
[2] = target: CYP3A4 (Homo sapiens, UniProt P08684); assay: Inhibition of CYP3A4 in human liver microsomes preincubated for 10 mins followed by NADPH addition measured after 10 mins by LC/MS/MS analysis relative to control; assay type: ADME, Microsome; conditions: time 20 min
[3] = test system: Mus musculus; assay: Improvement in motor ability in ISO-induced heart failure C57BL/6J mouse assessed as increase in time of remote motion with rotarod at 5 to 20 mg/kg/day, po for 14 days; assay type: functional, organism-based; conditions: dose 5-20 mg/kg/day, time 14.0 day
[4] = test system: Mus musculus; assay: Cardioprotective activity in ISO-induced heart failure C57BL/6J mouse assessed as ejection fraction in heart at 20 mg/kg/day, po for 14 days by echocardiography (reference value: 49.55 +/- 2.41 %); assay type: functional; conditions: time 14 day
[5] = test system: H9c2; assay: Inhibition of apoptosis in ISO-treated rat H9c2 cells by Annexin V-FITC/PI staining based flow cytometry; assay type: functional, cell-based; conditions: dose 5-50 µM
[6] = MRT (0 to t) in C57/6J mouse at 5 mg/kg, iv measured for 24 hrs; assay type: ADME, organism-based; conditions: in vivo
[7] = Metabolic stability in mouse liver microsomes assessed as half life measured for 5 to 60 mins in presence of NADPH by LC-MS/MS analysis; assay type: ADME, Microsome; conditions: time 5-60 min
[8] = target: T1, CYP1A2 (Homo sapiens, UniProt P05177); assay: Inhibition of CYP1A2 in human liver microsomes preincubated for 10 mins followed by NADPH addition measured after 10 mins by LC/MS/MS analysis relative to control; assay type: ADME, Microsome; conditions: time 20 min
T1 sequence (P05177 whole entry): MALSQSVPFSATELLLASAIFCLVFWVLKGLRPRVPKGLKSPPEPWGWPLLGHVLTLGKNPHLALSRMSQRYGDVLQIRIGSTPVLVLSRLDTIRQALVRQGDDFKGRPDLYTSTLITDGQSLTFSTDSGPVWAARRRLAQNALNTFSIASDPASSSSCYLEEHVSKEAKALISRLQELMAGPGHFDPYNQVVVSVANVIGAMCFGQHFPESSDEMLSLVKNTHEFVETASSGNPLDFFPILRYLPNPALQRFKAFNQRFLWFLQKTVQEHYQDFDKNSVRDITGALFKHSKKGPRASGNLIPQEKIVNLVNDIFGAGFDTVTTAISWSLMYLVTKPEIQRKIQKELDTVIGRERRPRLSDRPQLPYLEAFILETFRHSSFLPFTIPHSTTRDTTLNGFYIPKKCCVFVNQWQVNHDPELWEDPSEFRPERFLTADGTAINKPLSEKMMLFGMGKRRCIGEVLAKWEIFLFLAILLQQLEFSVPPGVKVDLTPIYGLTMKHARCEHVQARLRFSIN

[9] = test system: Mus musculus; assay: Inhibition of cardiomyocyte hypertrophy in ISO-induced heart failure C57BL/6J mouse assessed as decrease in ratio of p-GSK-3beta to GSK-3beta levels in heart tissue administered orally daily for 14 days by Western blot analysis; assay type: functional, organism-based; conditions: dose 5-20 mg/kg/day, route po, time 14.0 day
[10] = Metabolic stability in mouse liver microsomes assessed as intrinsic clearance measured for 5 to 60 mins in presence of NADPH by LC-MS/MS analysis; assay type: ADME, Microsome; conditions: time 5-60 min, read-out: CLH
[11] = test system: Mus musculus; assay: Inhibition of cardiomyocyte hypertrophy in ISO-induced heart failure C57BL/6J mouse assessed as increase in Bcl-2 level in heart tissue at 5 to 20 mg/kg/day, po for 14 days by Western blot analysis; assay type: functional, organism-based; conditions: dose 5-20 mg/kg/day, time 14.0 day
[12] = test system: Mus musculus; assay: Inhibition of cardiomyocyte hypertrophy in ISO-induced heart failure C57BL/6J mouse at 5 to 20 mg/kg/day, po for 14 days by WGA staining based analysis; assay type: functional, organism-based; conditions: dose 5-20 mg/kg/day, time 14.0 day
[13] = test system: Mus musculus; assay: Improvement in motor ability in ISO-induced heart failure C57BL/6J mouse assessed as increase in grip strength at 5 to 20 mg/kg/day, po for 14 days; assay type: functional, organism-based; conditions: dose 5-20 mg/kg/day, time 14.0 day
[14] = Oral bioavailability in C57/6J mouse at 20 mg/kg measured for 24 hrs; assay type: ADME, organism-based; conditions: in vivo
[15] = Half life in C57/6J mouse at 5 mg/kg, iv measured for 24 hrs; assay type: ADME, organism-based; conditions: in vivo
[16] = AUC (0 to t) in C57/6J mouse at 20 mg/kg, po measured for 24 hrs; assay type: ADME, organism-based; conditions: in vivo
[17] = test system: Mus musculus; assay: Cardioprotective activity in ISO-induced heart failure C57BL/6J mouse assessed as fractional shortening in heart at 20 mg/kg/day, po for 14 days by echocardiography (reference value: 24.49 +/- 1.49 %); assay type: functional; conditions: time 14 day
[18] = test system: H9c2; assay: Cytoprotective activity against OGD-induced myocardial ischemic injury in rat H9c2 cells assessed as cell viability at 50 uM preincubated for 12 hrs followed by exposure to OGD condition for 3 hrs by CCK8 assay (reference value: 49.23 to 50.05 %); assay type: functional; conditions: time 15 hrs, read-out: Activity

Chain of CYP3A4 (P08684 whole entry): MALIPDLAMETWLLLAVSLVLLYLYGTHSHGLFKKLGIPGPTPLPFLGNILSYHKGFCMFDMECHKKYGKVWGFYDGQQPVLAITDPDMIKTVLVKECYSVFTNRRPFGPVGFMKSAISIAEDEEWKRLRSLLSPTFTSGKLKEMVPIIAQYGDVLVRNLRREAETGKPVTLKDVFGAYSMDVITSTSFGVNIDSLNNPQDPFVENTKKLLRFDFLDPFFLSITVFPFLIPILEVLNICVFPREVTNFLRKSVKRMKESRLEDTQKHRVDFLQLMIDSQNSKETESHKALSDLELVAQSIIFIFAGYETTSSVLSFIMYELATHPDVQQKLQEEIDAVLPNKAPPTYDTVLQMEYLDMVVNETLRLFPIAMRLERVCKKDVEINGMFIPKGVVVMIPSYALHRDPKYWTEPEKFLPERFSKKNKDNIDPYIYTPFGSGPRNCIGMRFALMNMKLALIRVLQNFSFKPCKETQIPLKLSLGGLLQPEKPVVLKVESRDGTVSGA

SMILES: OC[C@H]1O[C@@H](O[C@@H]2OC=C[C@H]3[C@H](O)[C@@H]4O[C@]4(COc4ccc(C(F)(F)F)cc4)[C@@H]23)[C@H](O)[C@@H](O)[C@@H]1O
- inhibition [1]: Active
- inhibition at 10 min [2]: 0.4%
- Activity [3]: Active
- Activity [4]: 58.46%
- inhibition [5]: Active; Exhibited Significantly Greater Decrease In Apoptotic Rate
- MRT last at 24 h [6]: 31.2 min
- half-life [7]: > 145 min
- inhibition at 10 min [8]: 8%
- inhibition [9]: Dose-dependent-effect
- CLint scaled [10]: < 38 mL/min/kg
- inhibition [11]: Active
- inhibition [12]: Active
- Activity [13]: Active
- bioavailability [14]: 41.8%
- half-life [15]: 57 min
- AUC(0-t) at 24 h [16]: 1820 ng·h/mL
- Activity [17]: 31.27%
- viability at 50 µM [18]: 72%
